For 22 compounds, IC50 and inhibition results are on record in ChEMBL document CHEMBL1133405, “Design and synthesis of functionalized glycomers as non-peptidic ligands for SH2 binding and as inhibitors of A-431 human epidermoid and HT-29 colon carcinoma cell lines” (Bioorg Med Chem Lett, 2000).

The structures appear in SMILES notation.

One assay concerns A-431. Briefly: Cytotoxicity measured for the growth inhibition of A-431 Human epidermoid carcinoma cell line. Type of assay: functional, cell-based.
Another assay concerns HT-29. Briefly: Cytotoxicity of compound was measured for the growth inhibition of HT-29 human colon carcinoma cell line. The format is functional, cell-based.
The target in assay [1] is Growth factor receptor-bound protein 2 (Homo sapiens) (UniProt P62993). Briefly: Compound was evaluated for the inhibitory activity against Growth factor receptor bound protein 2 SH2 at a concentration of 100 uM.
Sequence of Growth factor receptor-bound protein 2 (Homo sapiens) (P62993 whole entry, looked up): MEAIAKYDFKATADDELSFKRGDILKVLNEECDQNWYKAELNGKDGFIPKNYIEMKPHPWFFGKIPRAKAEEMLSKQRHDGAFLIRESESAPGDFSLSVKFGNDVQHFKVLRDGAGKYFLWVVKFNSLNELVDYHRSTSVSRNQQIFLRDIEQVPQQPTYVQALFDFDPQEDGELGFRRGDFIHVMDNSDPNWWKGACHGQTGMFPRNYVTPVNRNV

The IC50 is the concentration needed to halve the response being measured. Read a high IC50 as weaker potency in that assay. Broadly, the inhibition is the drop in the measured response relative to a control, in per cent. Regarding `C=CCO[C@H]1[C@@H](O)[C@H](COS(=O)(=O)c2cccc(C(F)(F)F)c2)O[C@@H](Oc2ccc(I)cc2)[C@H]1OC(=O)C(C)C`, the values for the IC50 in the assay on A-431 and in the assay on HT-29 were 3.3 µM and 4.2 µM, respectively. In addition, the inhibition in assay [1] is 30%.
For `C=CCO[C@@H]1[C@H](O)[C@H](Oc2ccc(I)cc2)O[C@@H](COS(=O)(=O)c2cccc(C(F)(F)F)c2)[C@H]1O`, the figures for the 50% inhibitory concentration (IC50) with A-431 and with HT-29 were 36.8 µM and 35.5 µM, respectively.
For `C=CCO[C@H]1[C@H](O)[C@H](COS(=O)(=O)c2cccc(C(F)(F)F)c2)O[C@@H](Oc2ccc(I)cc2)[C@H]1OC(C)=O` the same measures were 6.1 µM and 23.1 µM.
As to `C=CCO[C@H]1[C@H](O)[C@H](COS(=O)(=O)c2cccc(C(F)(F)F)c2)O[C@@H](Oc2ccc(I)cc2)[C@H]1OC(=O)c1ccccc1`, the IC50 in the assay on A-431 was found to be 7 µM; in the assay on HT-29, 7.5 µM.
As for `C=CCO[C@H]1[C@H](O)[C@H](COS(=O)(=O)c2cccs2)O[C@@H](Oc2ccc(I)cc2)[C@H]1OC(C)=O`, in the assay with A-431, it took 12.8 µM to reach half-maximal inhibition (IC50). In assay [1], this compound gave an inhibition of 30%.
Take `CCCO[C@H]1[C@H](O)[C@H](COS(=O)(=O)c2ccc3ccccc3c2)O[C@@H](Oc2ccc(OP(=O)(O)O)cc2)[C@H]1OC(C)=O` [GLYCOMER]: the IC50 in the assay with A-431 and in the assay on HT-29 was more than 50 µM each time.
As for `C=CCO[C@@H]1[C@H](O)[C@H](Oc2ccc(I)cc2)O[C@@H](COC(=O)c2ccc(OC)cc2)[C@H]1O`, the IC50 stood at 24.6 µM in the assay on A-431 and 55.1 µM with HT-29.
For `C=CCO[C@H]1[C@H](O)[C@H](COS(=O)(=O)c2ccc3ccccc3c2)O[C@@H](Oc2ccc(I)cc2)[C@H]1OC(C)=O` the same measures were 5.2 µM and 11.6 µM.
For the compound `NC(=O)OCCO[C@@H]1[C@H](O)[C@H](Oc2ccc(I)cc2)O[C@@H](COS(=O)(=O)c2ccc3ccccc3c2)[C@H]1O`, the IC50 worked out at 9.1 µM in the assay with A-431 and 23.1 µM with HT-29.
For `CCCO[C@H]1[C@H](O)[C@H](COS(=O)(=O)c2cccc(C(F)(F)F)c2)O[C@@H](Oc2ccc(OP(=O)(O)O)cc2)[C@H]1OC(C)=O` [GLYCOMER] the same measures were 38.8 µM and 35.5 µM.
As for `C=CCO[C@H]1[C@H](O)[C@H](COS(=O)(=O)c2cccc(C(F)(F)F)c2)O[C@@H](Oc2ccc(I)cc2)[C@H]1OC(=O)Cc1ccccc1`, the results for the IC50 with A-431 and with HT-29 were 5.15 µM and 4.95 µM, respectively.
As for `O=C(CCc1ccccc1)O[C@@H]1[C@H](Oc2ccc(I)cc2)O[C@@H](COS(=O)(=O)c2cccc(C(F)(F)F)c2)[C@@H](O)[C@@H]1OCCOC(=O)Nc1ccccc1`, the IC50 in the assay with A-431 amounted to 4.52 µM; with HT-29, 7.15 µM. The inhibition in assay [1] turned out to be 30%.
Take `C=CCO[C@H]1[C@H](O)[C@H](COS(=O)(=O)c2cccc(C(F)(F)F)c2)O[C@H](Oc2ccc(I)cc2)[C@@H]1OC(=O)CCC`: the concentration for half-maximal inhibition (IC50) turned out to be 2.6 µM in the assay with A-431 and 4 µM with HT-29.
Take `C=CCO[C@@H]1[C@H](O)[C@H](Oc2ccc(I)cc2)O[C@@H](COCc2ccc(OC)cc2)[C@H]1O`: the values for the half-inhibitory concentration (IC50) in the assay on A-431 and with HT-29 were 10.6 µM and 19.7 µM, respectively.
`C=CCO[C@H]1[C@H](O)[C@H](COS(=O)(=O)c2ccc(Cl)cc2)O[C@@H](Oc2ccc(I)cc2)[C@H]1OC(C)=O` had an IC50 in the assay with A-431 of 9.77 µM.
Turning to `O=C(Nc1ccccc1)OCCO[C@@H]1[C@H](O)[C@H](Oc2ccc(I)cc2)O[C@@H](COS(=O)(=O)c2ccc3ccccc3c2)[C@H]1O`, the half-maximal inhibitory concentration (IC50) with A-431 was 5.1 µM; in the assay on HT-29, 3.67 µM.
For `C=CCO[C@@H]1[C@H](O)[C@H](Oc2ccc(I)cc2)O[C@@H](COC(=O)c2ccc(Cl)cc2)[C@H]1O`, in that order: 20.5 µM and 25.2 µM.
For `C=CCO[C@@H]1[C@H](O)[C@H](Oc2ccc(I)cc2)O[C@@H](COC(=O)c2ccc3ccccc3c2)[C@H]1O` the same measures were more than 50 µM and more than 50 µM.
For the compound `C=CCO[C@H]1[C@H](O)[C@H](COS(=O)(=O)c2cccc(C(F)(F)F)c2)O[C@@H](Oc2ccc(I)cc2)[C@H]1OC(=O)CC`, the IC50 with A-431 came to 2.17 µM; in the assay with HT-29, 4.65 µM.
As for `C=CCO[C@@H]1[C@H](O)[C@H](Oc2ccc(I)cc2)O[C@@H](COC(=O)c2ccccc2)[C@H]1O`, the IC50 in the assay on A-431 and in the assay with HT-29 was more than 50 µM in each case.
On to `C=CCO[C@@H]1[C@H](O)[C@H](Oc2ccc(I)cc2)O[C@@H](COS(=O)(=O)c2ccc3ccccc3c2)[C@H]1O`, for which, in the assay on A-431, the 50% inhibitory concentration (IC50) was determined as 8.81 µM.
Consider `C=CCO[C@H]1[C@H](O)[C@H](COS(=O)(=O)c2cccc(C(F)(F)F)c2)O[C@@H](Oc2ccc(I)cc2)[C@H]1OC(=O)CCc1ccccc1`, for which the IC50 is 2 µM in the assay with A-431 and 3 µM in the assay with HT-29.
